The source of these data is US11401278B2, “Macrocyclic indole derivatives” (The Broad Institute, Inc., priority 2017, dated 2022).

Molecules are shown by their SMILES. Counter-ions that a name gives are not always drawn. Like-named read-outs stand apart in the source and are kept apart here. Where only a bound is given, the exact number is not on record here.

Data set [1] relates to SUDHL5. Put plainly: Induction of cytotoxicity (Assay 6), SUDHL5. Particulars: read-out: Cytotox SUDHL5 [M] (median) IC50, CellTiter-Glo, 5 hours, SUDHL5. (In general: ATP-based viability assays read luminescence as a measure of living cells.)
A further data set deals with BCL-2 (Homo sapiens (Human), UniProt P10415). Put plainly: Protein-protein interaction assay BCL-2/Bad BH3 peptide (BCL-2 assay, TR-FRET). Particulars: His-BCL-2 / Bad BH3 peptide, median. The class given is binding. Here is the method:
Assay 3 Protein-Protein Interaction Assay: BCL-2/Bad BH3 Peptide (BCL-2 Assay)
The dose-dependent inhibition by the compounds described in this invention of the interaction between BCL-2 and the BH3 domain of Bad (both human) was determined using a steady state binding competition assay with time-resolved fluorescence energy transfer (TR-FRET) readout. For that purpose BCL-2 (amino acids 1-211, C-terminal fused to a hexahistidine (6×His) tag (SEQ ID 5) and a synthetic Bad BH3-derived peptide of sequence Biotin-PEG2-PEG2-NLWAAQRYGRELRR-Nle-SDEFVDSFKK-amide (SEQ ID 4) served as protein receptor and tracer ligand respectively. The recombinant BCL-2 protein (expressed in E. coli) was purchased from BPS Bioscience (San Diego, Calif., USA). The Bad BH3-derived peptide can be obtained from e.g. Biosyntan (Berlin, Germany).
In the assay 11 different concentrations of each compound (0.1 nM, 0.33 nM, 1.1 nM, 3.8 nM, 13 nM, 44 nM, 0.15 μM, 0.51 μM, 1.7 μM, 5.9 μM and 20 μM) were typically measured as duplicates in the same microtiter plate. For that, 100-fold concentrated DMSO solutions were prepared by serial dilutions (1:3.4) of a 2 mM stock solution in a clear, 384-well microtiter plate (Greiner Bio-One, Frickenhausen, Germany). From there, 50 nl were transferred in a dark test plate (Greiner Bio-One, Frickenhausen, Germany). The assay was initiated by addition of 2 μl of a 2.5-fold concentrated His-BCL-2 solution (usually for a 1 nM end concentration in 5 μl reaction volume) in aqueous assay buffer [50 mM Tris/HCl pH 7, 100 mM sodium chloride (NaCl), 50 mM potassium fluoride (KF), 0.005% Tween-20, 2 mM DTT, 0.1% bovine gamma globulin (BGG)] to the compounds in the assay plate. This was followed by a 10-minute incubation step at 22° C. for pre-equilibration of the putative complex between His-BCL-2 and the compounds. After that, 3 μl of a 1.67-fold concentrated solution (in assay buffer) consisting of Bad BH3-derived peptide (1 nM end concentration) and TR-FRET detection reagents [1.67 nM anti-His-Eu cryptate and 1.67 nM streptavidin-XL665 (both from Cisbio Bioassays, Codolet, France)], were added.
The mixture was incubated in the dark for one hour at 22° C. and then overnight at 4° C. The formation of BCL-2/Bad complexes was determined by measuring the resonance energy transfer of the anti-His-Eu-cryptate antibody to the streptavidin-XL665 present in the reaction. For that purpose, the fluorescence emission at 620 nm and 665 nm after excitation at 330-350 nm was measured in a TR-FRET measuring instrument, for instance a Rubystar or a Pherastar (both from BMG Lab Technologies, Offenburg, Germany) or a Viewlux (Perkin-Elmer). The ratio of the emission at 665 nm and at 622 nm was used as indicator of the amount of BCL-2/Bad complexes present.
The resulting data (ratio) were normalized, taking 0% inhibition as the mean value of control measurements (usually 32 data points) where all reagents were included. In this case 50 nl DMSO were used instead of compounds. A 100% inhibition corresponded to the mean value of control measurements (usually 32 data points) where all reagents except BCL-2 were included. IC50 values were determined by regression analysis based on a 4 parameter equation (minimum, maximum, IC50, Hill; Y=Max+(Min−Max)/(1+(X/IC50)^HiII) using the Screener Software (Genedata).
In general terms: TR-FRET usually uses a lanthanide donor and a delayed reading to cut background.

The subject of the next data set is MV-4-11. Put plainly: Antiproliferation assay (Assay 7), MV-4-11. In kind it is cell-based. Particulars: CellTiter-Glo, several values per example. Here is the method: Assessment of the Anti-Proliferative Effect of Compounds in Different Cell Lines
The impact of compounds on the proliferation of different cell lines was assessed using the CellTiter-Glo® Luminescent Cell Viability reagent from Promega (G7573).
In parallel, cells were plated in a reference (day 0) plate for time zero determination.
Rim wells were excluded. The cells were incubated for 72 hours in a humidified incubator at 37° C. The day 0 plate was measured by adding 30 μL/well of CTG solution (CellTiter-Glo® Luminescent Cell Viability reagent, Promega G7573) to time zero wells in the reference plate followed by a 10 minutes incubation and luminescence reading at 0.1 ms. using the PHERAstar FS microplate reader (BMG Labtech).
After 72 hours incubation, the treated plates were measured in the same way as the day 0 plate mentioned above.

For data set [2], the system named is SUDHL5. Put plainly: Induction of caspase-3/7 activity (Assay 4), SUDHL5. The class given is cell-based. The note with it: caspase-3/7 induction, median. The method in brief: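 Caspase-3/7 activity measured by Caspase-Glo 3/7 luminescence in DLBCL cells after 3 h compound treatment at 37 °C. Medium-only background subtracted. EC50 fitted with C0 fixed at 1 and top set to the reference compound's plateau/max induction.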

Data set [3] has as its system SUDHL5. In words: Antiproliferation assay (Assay 7), SUDHL5. The class given is cell-based. Particulars: CellTiter-Glo, median, read-out: Antiproli SUDHL5 [M] (median) IC50. The essentials: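 Anti-proliferative effect is determined from CellTiter-Glo signal after a 72-hour incubation at 37° C, with a time-zero reference plate measured in parallel.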

Chain of BCL-2 (P10415 other isoform, or with tags, fused parts or gaps): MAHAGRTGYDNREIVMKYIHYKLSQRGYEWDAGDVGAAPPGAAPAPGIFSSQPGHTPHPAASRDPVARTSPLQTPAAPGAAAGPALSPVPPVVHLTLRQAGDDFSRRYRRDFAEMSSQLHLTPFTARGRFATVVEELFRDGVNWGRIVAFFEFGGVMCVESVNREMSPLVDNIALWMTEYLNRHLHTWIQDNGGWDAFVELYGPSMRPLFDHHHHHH

Turning to `CCc1c2c(nn1C)CN(C)S(=O)(=O)CCCn1c(C(=O)O)c(CCCOc3cc(C)c(Cl)c(C)c3)c3ccc(F)c-2c31` (racemic) [Example 33, (rac)-1-(3-(4-Chloro-3,5-dimethylphenoxy)propyl)-12-ethyl-13-fluoro-8,11-dimethyl-5,6,9,11-tetrahydro-4H,8H-pyrazolo[3′,4′:4,5][1]thia[2,8]diazacycloundecino[6,7,8-hi]indole-2-carboxylic acid 7,7-dioxide], the IC50 with SUDHL5 [1] (Homo sapiens, SU-DHL-5, 5 h) was 2.6e-06 M; against BCL-2 it was above 20000 nM; in the data set with MV-4-11 (Homo sapiens, MV4-11, 72 h, read-out: Antiproli MV-4-11 [M] IC50), 4.62e-06 M. In the data set on SUDHL5 [2] (Homo sapiens, SU-DHL-5, 3 h), this compound came in with an EC50 of 1600 nM.
On to `Cc1c2c(nn1C)CN(C)S(=O)(=O)CCCn1c(C(=O)O)c(CCCOc3cccc4ccccc34)c3ccc(Cl)c-2c31` (single isomer, unassigned; enantiomer 1) [Example 5, 4-Chloro-2,3,14-trimethyl-7-{3-[(naphthalen-1-yl)oxy]propyl}-13,13-dioxo-10,11,12,13,14,15-hexahydro-2H-13λ^6-pyrazolo[3′,4′:4,5][1,2,8]thiadiazacycloundecino[6,7,8-hi]indole-8-carboxylic acid-N-ethylethanamine salt (Enantiomer 1)], for which the half-maximal inhibitory concentration (IC50) with SUDHL5 [3] (72 hours) came to 5.1e-07 M; in the data set with SUDHL5 [1], 4.9e-07 M. The same compound returned an EC50 in the data set with SUDHL5 [2] (3 hours) of 130 nM.
With `Cc1c2c(nn1C)CNS(=O)(=O)CCCn1c(C(=O)O)c(CCCOc3cccc4cc(F)ccc34)c3ccc(Cl)c-2c31` (single isomer, unassigned; enantiomer 1) [Example 51, 4-chloro-7-{3-[(6-fluoronaphthalen-1-yl)oxy]propyl}-2,3-dimethyl-13,13-dioxo-10,11,12,13,14,15-hexahydro-2H-13lambda^6-pyrazolo[3′,4′:4,5][1,2,8]thiadiazacycloundecino[6,7,8-hi]indole-8-carboxylic acid (Enantiomer 1)], the IC50 with SUDHL5 [3] (72 hours) was 4.1e-07 M; with SUDHL5 [1] it was 5e-07 M; at BCL-2 it was above 20000 nM. Moreover, the EC50 with SUDHL5 [2] (3 hours) was found to be 340 nM.
In the same order, the values of `CCc1c2c(nn1C)C(CCC1CCOCC1)N(C)S(=O)(=O)CCCn1c(C(=O)O)c(CCCOc3cccc4cc(F)ccc34)c3ccc(Cl)c-2c31` (single isomer, unassigned; enantiomer 1) [Example 61, (+)-4-chloro-3-ethyl-7-{3-[(6-fluoronaphthalen-1-yl)oxy]propyl}-2,14-dimethyl-15-[2-(oxan-4-yl)ethyl]-13,13-dioxo-10,11,12,13,14,15-hexahydro-2H-13lambda^6-pyrazolo[3′,4′:4,5][1,2,8]thiadiazacycloundecino[6,7,8-hi]indole-8-carboxylic acid (Enantiomer 1)] are 3.9e-08 M, 2.8e-08 M, 16000 nM and 22 nM.
As to `Cc1c2c(nn1C)CN(C)S(=O)(=O)CCCn1c(C(=O)O)c(CCCOc3cccc4ccccc34)c3ccc(Cl)c-2c31` (single isomer, unassigned; enantiomer 2) [Example 6, 4-Chloro-2,3,14-trimethyl-7-{3-[(naphthalen-1-yl)oxy]propyl}-13,13-dioxo-10,11,12,13,14,15-hexahydro-2H-13λ^6-pyrazolo[3′,4′:4,5][1,2,8]thiadiazacycloundecino[6,7,8-hi]indole-8-carboxylic acid-N-ethylethanamine salt (Enantiomer 2)], the IC50 in the data set on SUDHL5 [3] (72 hours) was found to be 1.1e-05 M; with SUDHL5 [1] it was 1.2e-05 M; with MV-4-11 (72 hours, listed as 06, read-out: Antiproli MV-4-11 [M] IC50), 2.02e-05 M. Besides, the EC50 in the data set with SUDHL5 [2] (3 hours) was found to be 16000 nM.
For the compound `Cc1c2c(nn1C)C(CCN1CCOCC1)N(C)S(=O)(=O)CCCn1c(C(=O)O)c(CCCOc3cccc4cc(F)ccc34)c3ccc(Cl)c-2c31` (single isomer, unassigned; enantiomer 2) [Example 67, 4-chloro-7-{3-[(6-fluoronaphthalen-1-yl)oxy]propyl}-2,3,14-trimethyl-15-[2-(morpholin-4-yl)ethyl]-13,13-dioxo-10,11,12,13,14,15-hexahydro-2H-13lambda^6-pyrazolo[3′,4′:4,5][1,2,8]thiadiazacycloundecino[6,7,8-hi]indole-8-carboxylic acid (Enantiomer 2)], the IC50 in the data set on SUDHL5 [3] (72 hours) amounted to 6.7e-09 M; in the data set on SUDHL5 [1], 9.8e-09 M. This compound also showed an EC50 in the data set with SUDHL5 [2] (3 hours) of 7.3 nM.
As to `CCc1c2c(nn1C)C(CCC1CCOCC1)N(C)S(=O)(=O)CCCn1c(C(=O)O)c(CCCOc3cccc4cc(F)ccc34)c3ccc(Cl)c-2c31` (single isomer, unassigned; enantiomer 3) [Example 63, (+)-4-chloro-3-ethyl-7-{3-[(6-fluoronaphthalen-1-yl)oxy]propyl}-2,14-dimethyl-15-[2-(oxan-4-yl)ethyl]-13,13-dioxo-10,11,12,13,14,15-hexahydro-2H-13lambda^6-pyrazolo[3′,4′:4,5][1,2,8]thiadiazacycloundecino[6,7,8-hi]indole-8-carboxylic acid (Enantiomer 3)], the IC50 came to 7e-08 M in the data set with SUDHL5 [3] (72 hours), 4.5e-08 M in the data set on SUDHL5 [1] and 19000 nM against BCL-2. It took 40 nM to reach a half-maximal effect in the data set with SUDHL5 [2] (3 hours) (EC50).
With `CCc1c2c(nn1C)CN(CCN1CCOCC1)S(=O)(=O)CCCn1c(C(=O)O)c(CCCOc3cccc4cc(F)ccc34)c3ccc(Cl)c-2c31` [Example 77, (rac)-13-chloro-12-ethyl-1-(3-((6-fluoronaphthalen-1-yl)oxy)propyl)-11-methyl-8-(2-morpholinoethyl)-5,6,9,11-tetrahydro-4H,8H-pyrazolo[3′,4′:4,5][1]thia[2,8]diazacycloundecino[6,7,8-hi]indole-2-carboxylic acid 7,7-dioxide], the IC50 is 7.2e-06 M with SUDHL5 [3] (Homo sapiens, SU-DHL-5, 72 h); 6.7e-06 M with SUDHL5 [1] (Homo sapiens, SU-DHL-5, 5 h); above 20000 nM at BCL-2. The compound also returned a concentration giving a half-maximal response (EC50) in the data set on SUDHL5 [2] (Homo sapiens, SU-DHL-5, 3 h) of 4800 nM.

By IC50 is commonly meant the concentration that gives 50% inhibition. The term EC50 denotes the concentration at which the effect is half-maximal. Higher therefore signals weaker potency.
